From patent publication US4717716A, “Immuno-regulator” (Nihon University, priority 1985, dated 1988)
Values joined by “and” are separate entries in the source; they are usually repeats but may differ in a detail not shown here. Equal values may be shown once.

Tests used:
[1] = formulated by LISA corporation in Spain since 10 years; cited from earlier work
[2] = system: anti-SRBC antibody in serum of mice immunized with SRBC; test: Determination of serum antibody value (hemagglutination titer, HA-titer); format: in vivo, mouse; details: for Anti-SRBC Antibody Value N: maximal positive dilution 2^N
Procedure: Blood was collected in the PFC reaction from carotid arteries of a group of five mice, from which was separated a serum in a conventional manner for determination of hemagglutination titer (HA-titer). The test serum was diluted with a phosphate buffered saline (PBS) containing 0.5-1% of a serum from a normal rabbit, and was evaluated using SRBC. The maximal dilution showing positive reaction was represented by 2^N, wherein N represents an antibody value.

[3] = system: male DDY mouse sensitized with picryl chloride; test: Delayed hypersensitivity reaction (picryl chloride contact dermatitis); format: in vivo; details: for Increase of Ear control %: 0 mg/kg/day = 100; for Thickness × 10^-3cm Increase of Ear: 1% picryl chloride, average of 8 mice ± S.D.
Text: A male DDY mouse of 5 weeks are weighing about 20 g was used to detect its contact dermatitis by means of 2, 4, 6-trinitro-chlorobenzene (picryl chloride) (available from Tokyo Chemical Industry Co., Ltd). An ethanol solution of 1% picryl chloride was impregnated into 4-layered gauge (1×1 cm), which was then contacted with a shaved abdomen of the mouse for 10 seconds to cause primary sensitization. The secondary sensitization for test was caused on seventh day by applying an olive oil solution of 1% picryl chloride on both surfaces of one ear by means of a paint brush. The other ear had applied only olive oil as a control. After 24 hours, the mouse was anesthetized with ether, and thickness of the ear was determined in the order of 1/100 mm by a micrometer having precision of 1/100 mm. The delayed hypersensitivity reaction was calculated as follows: […]
(Thickness of Ear Applied with Picryl Chloride after 24 Hours--Thickness of Ear before Application) minus (Thickness of Ear Applied with Olive Oil After 24 Hours--Thickness of Ear before Application).
L-carnosine was administered subcutaneously in the indicated amount for 14 days. On the 7th day, sensitization was conducted by 1% picryl chloride, and examination was carried out on 7 days later. Values are shown in an average of 8 mices ±S.D.

[4] = Physicochemical properties of L-carnosine
[5] = system: plaque-forming cells of DDY mouse immunized with sheep red blood cells (SRBC); test: PFC method (hemolytic plaque-forming cells) in mice immunized with SRBC; format: in vivo; details: for PFC Number per g. Spleen: 4 days after immunization; for PFC reaction: mouse of 5 weeks age, 2.5×10^8 SRBC
[6] = system: DDY male mouse; test: Acute toxicity of L-carnosine in mice; format: in vivo
Procedure: L-carnosine was administered peritoneally or orally in different amounts to a group of 10 mice and acute toxic symptoms were observed 5 hours after administration. […] L-carnosine was dissolved in a physiological saline so as to give a dose of 0.1 to 0.3 ml/10 g.

[7] = SRBC antigen amount 2.5 × 10^9, 100 mg/Kg/day S.C. for six days
[8] = SRBC antigen amount 5 × 10^7, 100 mg/Kg/day S.C. for six days
[9] = mice of 2 weeks age, 100 mg/Kg/day S.C., 2.5 × 10^8 SRBC
[10] = mice of 5 weeks age, 100 mg/Kg/day S.C., 2.5 × 10^8 SRBC
[11] = mice of 30 weeks age, 100 mg/Kg/day S.C., 2.5 × 10^8 SRBC
[12] = 50 mg/kg/day subcutaneously for 14 days
[13] = 250 mg/kg/day subcutaneously for 14 days
[14] = 500 mg/kg/day subcutaneously for 14 days

NCCC(=O)N[C@@H](Cc1cnc[nH]1)C(=O)O [L-carnosine, β-alanyl-L-histidine]
safety in use as anorexia treating agent [1]: confirmed to be safe
Anti-SRBC Antibody Value N ([2]; 25 mg/kg for 6 days, 2.5 × 10^8 SRBC): 9
Anti-SRBC Antibody Value N ([2]; 50 mg/kg for 6 days, 2.5 × 10^8 SRBC): 10
Anti-SRBC Antibody Value N ([2]; 250 mg/kg for 6 days, 2.5 × 10^8 SRBC): 9
Anti-SRBC Antibody Value N ([2]; 500 mg/kg for 6 days, 2.5 × 10^8 SRBC): 8
Anti-SRBC Antibody Value N [2, 7]: 8
Anti-SRBC Antibody Value N [2, 8]: 4
hemagglutination reaction ([2]; level of more than 500 mg/Kg): subsided
Anti-SRBC Antibody Value N [2, 9]: 6-7
Anti-SRBC Antibody Value N [2, 10]: 9-10
Anti-SRBC Antibody Value N [2, 11]: 9
Increase of Ear control % [3, 12]: 122.6%
Thickness × 10^-3cm Increase of Ear [3, 12]: 14.1 ± 3.6 × 10^-3cm
Increase of Ear control % [3, 13]: 136.5%
Thickness × 10^-3cm Increase of Ear [3, 13]: 15.7 ± 2.5 × 10^-3cm
Increase of Ear control % [3, 14]: 185.2%
Thickness × 10^-3cm Increase of Ear [3, 14]: 21.3 ± 8.7 × 10^-3cm
DHR with 1% picryl chloride ([3]; doses of 50, 250 and 500 mg/Kg): increasing trend of reaction
solubility in water [4]: readily soluble in water
PFC Number per Chamber ([5]; 25 mg/kg): 53.0 ± 6.1
PFC Number per Spleen ([5]; 25 mg/kg): 10.7 × 10^4
PFC Number per g. Spleen (%) ([5]; 25 mg/kg for 6 days, 2.5 × 10^8 SRBC, 0 mg/kg = 100): 133%
PFC Number per g. Spleen ([5]; 25 mg/kg for 6 days, 2.5 × 10^8 SRBC, mice): 7.6 × 10^5
PFC Number per Chamber (%) ([5]; 25 mg/kg, 144 h): 88%
PFC Number per Spleen (%) ([5]; 25 mg/kg, 144 h): 123%
Weight of Spleen (%) ([5]; 25 mg/kg, 144 h): 92%
PFC Number per Chamber ([5]; 50 mg/kg): 73.6 ± 6.2
PFC Number per Spleen ([5]; 50 mg/kg): 14.9 × 10^4
PFC Number per g. Spleen (%) ([5]; 50 mg/kg for 6 days, 2.5 × 10^8 SRBC, 0 mg/kg = 100): 149%
PFC Number per g. Spleen ([5]; 50 mg/kg for 6 days, 2.5 × 10^8 SRBC, mice): 8.5 × 10^5
PFC Number per Chamber (%) ([5]; 50 mg/kg, 144 h): 122%
PFC Number per Spleen (%) ([5]; 50 mg/kg, 144 h): 171%
Weight of Spleen (%) ([5]; 50 mg/kg, 144 h): 116%
effect on the PFC response ([5]; 100 mg/kg): No effect
PFC decreased ([5]; 100 mg/kg, 144 h): 30%
PFC increased ([5]; 100 mg/kg, 144 h): 30%
PFC Number per Chamber ([5]; 250 mg/kg): 69.8 ± 6.5
PFC Number per Spleen ([5]; 250 mg/kg): 14.6 × 10^4
PFC Number per g. Spleen (%) ([5]; 250 mg/kg for 6 days, 2.5 × 10^8 SRBC, 0 mg/kg = 100): 167%
PFC Number per g. Spleen ([5]; 250 mg/kg for 6 days, 2.5 × 10^8 SRBC, mice): 9.5 × 10^5
PFC Number per Chamber (%) ([5]; 250 mg/kg, 144 h): 116%
PFC Number per Spleen (%) ([5]; 250 mg/kg, 144 h): 168%
Weight of Spleen (%) ([5]; 250 mg/kg, 144 h): 100%
PFC Number per Chamber ([5]; 500 mg/kg): 64.8 ± 4.9
PFC Number per Spleen ([5]; 500 mg/kg): 8.3 × 10^4
PFC Number per g. Spleen (%) ([5]; 500 mg/kg for 6 days, 2.5 × 10^8 SRBC, 0 mg/kg = 100): 107%
PFC Number per g. Spleen ([5]; 500 mg/kg for 6 days, 2.5 × 10^8 SRBC, mice): 6.1 × 10^5
PFC Number per Chamber (%) ([5]; 500 mg/kg, 144 h): 107%
PFC Number per Spleen (%) ([5]; 500 mg/kg, 144 h): 95%
Weight of Spleen (%) ([5]; 500 mg/kg, 144 h): 89%
PFC Number per g. Spleen (%) ([5]; 2 weeks age, 100 mg/Kg/day S.C., 2.5 × 10^8 SRBC, normal = 100): 64%
PFC Number per g. Spleen (%) ([5]; 5 weeks age, 100 mg/Kg/day S.C., 2.5 × 10^8 SRBC, normal = 100): 110%
PFC Number per g. Spleen (%) ([5]; 30 weeks age, 100 mg/Kg/day S.C., 2.5 × 10^8 SRBC, normal = 100): 177%
PFC Number per g. Spleen (%) ([5]; SRBC 2.5 × 10^9, 100 mg/Kg/day S.C. six days, normal = 100): 71%
PFC Number per g. Spleen (%) ([5]; SRBC 5 × 10^7, 100 mg/Kg/day S.C. six days, normal = 100): 119%
PFC Number per g. Spleen (%) ([5]; SRBC 5 × 10^8, 100 mg/Kg/day S.C. six days, normal = 100): 53%
PFC Number per g. Spleen [5, 7]: 10.2 × 10^5
PFC Number per g. Spleen [5, 8]: 5.0 × 10^5
PFC Number per g. Spleen ([5]; SRBC antigen amount 5 × 10^8, 100 mg/Kg/day S.C. for six days): 8.2 × 10^5
effect on the PFC response ([5]; immature mouse of 2 weeks age, 100 mg/Kg for 9 days): suppressed
PFC Number per g. Spleen [5, 9]: 4.8 × 10^5
PFC Number per g. Spleen [5, 10]: 12.5 × 10^5
PFC Number per g. Spleen [5, 11]: 11.7 × 10^5
PFC reaction ([5]; 50 and 250 mg/Kg for 6 days): increased
PFC reaction ([5]; dose of more than 500 mg/Kg): subsided
effect on the PFC response ([5]; old mouse of 30 weeks age, 100 mg/Kg for 9 days): doubly strengthened
optimum dosage for the immuno-regulatory action ([5]; sc): 100 mg/kg/day
Weight of Spleen (%) ([5]; sc, 100 mg/kg/day, 336 h): 93%
PFC Number per Chamber (%) ([5]; sc, 100 mg/kg/day, 840 h): 107%
PFC Number per Spleen (%) ([5]; sc, 100 mg/kg/day, 840 h): 110%
Weight of Spleen (%) ([5]; sc, 100 mg/kg/day, 840 h): 100%
Weight of Spleen (%) ([5]; sc, 100 mg/kg/day, 5040 h): 121%
acute toxicity, overall ([6]; DDY male mouse): very low toxicity
effective amount as fraction of acute toxicity LD50 ([6]; mouse, in vivo): 1/181
mice killed ([6]; mouse, in vivo): one of the 10
toxic effect of oral administration ([6]; oral 15,000 mg/Kg, mice): little effect
LD50 (minimal lethal dose) ([6]; oral, DDY male mouse, value on 72 hours): > 14,930 mg/Kg
toxic symptoms ([6]; peritoneal 15,000 mg/Kg, from about 30 minutes, a half of the mice): depression of voluntary motility, abdominal position, depression and irregularity of respiration rate
LD 100 ([6]; peritoneal administration, mice): 15,000 mg/Kg
LD50 (95% confidence limit) ([6]; peritoneal, DDY male mouse, value on 72 hours): 9,087 (8,320-9,925) mg/Kg and 9,087 mg/Kg
